Paper PMC3412620 (PLoS ONE, 2012)

Columns and labels:
[1] = biological target: T1, human pyridoxal kinase (hPL kinase) (Homo sapiens, UniProt O00764); assay: crystal structure ([…] Å, ternary with ginkgotoxin); type: binding
T1 construct: gene PDXK; wild-type hPL kinase
T1 sequence (O00764 1-312): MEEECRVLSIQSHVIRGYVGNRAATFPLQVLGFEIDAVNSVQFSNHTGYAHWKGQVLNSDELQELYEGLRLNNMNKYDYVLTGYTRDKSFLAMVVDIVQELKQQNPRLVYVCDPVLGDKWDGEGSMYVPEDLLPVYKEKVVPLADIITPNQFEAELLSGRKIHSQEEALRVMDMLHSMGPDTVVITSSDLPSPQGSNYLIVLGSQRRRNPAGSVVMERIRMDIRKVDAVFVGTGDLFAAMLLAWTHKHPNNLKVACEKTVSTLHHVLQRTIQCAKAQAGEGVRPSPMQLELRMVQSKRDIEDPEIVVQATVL

[2] = biological target: T1, human pyridoxal kinase (hPL kinase); assay: crystal structure ([…] Å), […] occupancy; density broken between ring and phosphate; type: binding
[3] = biological target: T1, human pyridoxal kinase (hPL kinase); assay: percentage inhibition at […], spectrophotometric assay; type: biochemical
[4] = biological target: T1, human pyridoxal kinase (hPL kinase); assay: spectrophotometric kinetic assay (PL to PLP, […] nm); type: biochemical
[5] = substrate: Cc1ncc(CO)c(C=O)c1O; assay: spectrophotometric steady-state kinetics with purified enzyme (Km); type: biochemical, Homo sapiens; conditions: MgATP PL substrate site

Molecule: Nc1ncnc2c1ncn2[C@@H]1O[C@H](COP(=O)(O)OP(=O)(O)OP(=O)(O)O)[C@@H](O)[C@H]1O [ATP]
- crystal structure (2.15 Å, ternary with ginkgotoxin) [1]: We observed bound MgATP and ginkgotoxin (Fig. 4A–C) at both subunit active sites.

Molecule: COCc1c(COP(=O)(O)O)cnc(C)c1O [GIP, ginkgotoxin phosphate]
- crystal structure (2.15 Å), 40% occupancy; density broken between ring and phosp [2]: We also observed what appears to be the phosphorylated product of ginkgotoxin bound at the PL sites

Molecule: Cn1c(=O)c2c(ncn2C)n(C)c1=O [caffeine]
- inhibition at 100 µM [3]: 21%

Molecule: CCCn1c(=O)[nH]c(=O)c2[nH]cnc21 [enprofylline]
- Ki [4]: 228 µM

Molecule: Nc1nnc(-c2cccc(Cl)c2Cl)c(N)n1 [lamotrigine]
- Ki [4]: 56 µM

Molecule: Cn1cnc2c1c(=O)[nH]c(=O)n2C [theobromine]
- inhibition at 100 µM [3]: 22%

B1: human pyridoxal kinase (hPL kinase) (Homo sapiens) (protein)
chain: T1 sequence (O00764 1-312)
notes: wild-type hPL kinase
- Km [5]: 58 µM
